Laboratory results as given in US20230271954A1 (Gossamer Bio Services, Inc., priority 2020, published 2023).

How the values were obtained:
DGKα = DGKα (Homo sapiens, UniProt P23743); test: DGKα biochemical assay (ADP-Glo); settings: read-out: DGK α IC50
Outline: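 ADP-Glo kinase assay using OAG/PS (1:2) lipid substrate, sonicated, in HEPES pH 7.0 buffer with MgCl2, CaCl2, DTT, BSA, Triton X-100. Enzyme preincubated with compound 30 min at RT; substrate with ATP (DGKα: 400 μM) added, 45 min RT. Luminescence read; % inhibition vs DMSO and no-enzyme controls.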

DGKζ = molecular target: T1, DGKζ (Homo sapiens, UniProt Q13574); test: DGKζ biochemical assay (ADP-Glo); settings: read-out: DGK ζ IC50
T1 construct: purchased Carna 12-110
T1 sequence (Q13574 1-929 isoform Q13574-4): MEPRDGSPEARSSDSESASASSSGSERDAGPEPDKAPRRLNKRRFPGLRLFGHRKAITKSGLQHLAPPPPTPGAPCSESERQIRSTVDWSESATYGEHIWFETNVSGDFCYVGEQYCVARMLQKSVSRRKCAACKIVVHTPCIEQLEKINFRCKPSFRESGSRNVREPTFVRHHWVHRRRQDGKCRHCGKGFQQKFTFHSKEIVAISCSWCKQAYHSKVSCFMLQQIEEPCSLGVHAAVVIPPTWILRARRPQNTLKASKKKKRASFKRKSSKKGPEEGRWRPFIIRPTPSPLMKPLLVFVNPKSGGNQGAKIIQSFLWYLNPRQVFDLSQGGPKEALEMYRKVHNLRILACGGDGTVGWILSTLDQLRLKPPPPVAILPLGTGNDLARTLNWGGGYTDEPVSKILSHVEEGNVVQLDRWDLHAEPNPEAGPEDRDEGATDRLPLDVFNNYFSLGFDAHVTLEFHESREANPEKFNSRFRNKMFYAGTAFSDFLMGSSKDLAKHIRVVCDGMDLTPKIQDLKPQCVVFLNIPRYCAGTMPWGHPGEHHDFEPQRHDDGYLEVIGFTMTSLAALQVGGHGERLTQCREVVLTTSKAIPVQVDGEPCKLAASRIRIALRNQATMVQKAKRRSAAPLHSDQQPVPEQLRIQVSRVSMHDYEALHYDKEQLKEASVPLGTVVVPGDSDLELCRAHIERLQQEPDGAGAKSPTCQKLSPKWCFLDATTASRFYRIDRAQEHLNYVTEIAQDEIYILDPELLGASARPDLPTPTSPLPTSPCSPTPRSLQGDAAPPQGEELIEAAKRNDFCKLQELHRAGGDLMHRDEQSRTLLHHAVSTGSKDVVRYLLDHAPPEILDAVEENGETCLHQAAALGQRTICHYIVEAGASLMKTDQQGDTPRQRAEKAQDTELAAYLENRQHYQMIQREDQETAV

Chain of DGKα (P23743 whole entry): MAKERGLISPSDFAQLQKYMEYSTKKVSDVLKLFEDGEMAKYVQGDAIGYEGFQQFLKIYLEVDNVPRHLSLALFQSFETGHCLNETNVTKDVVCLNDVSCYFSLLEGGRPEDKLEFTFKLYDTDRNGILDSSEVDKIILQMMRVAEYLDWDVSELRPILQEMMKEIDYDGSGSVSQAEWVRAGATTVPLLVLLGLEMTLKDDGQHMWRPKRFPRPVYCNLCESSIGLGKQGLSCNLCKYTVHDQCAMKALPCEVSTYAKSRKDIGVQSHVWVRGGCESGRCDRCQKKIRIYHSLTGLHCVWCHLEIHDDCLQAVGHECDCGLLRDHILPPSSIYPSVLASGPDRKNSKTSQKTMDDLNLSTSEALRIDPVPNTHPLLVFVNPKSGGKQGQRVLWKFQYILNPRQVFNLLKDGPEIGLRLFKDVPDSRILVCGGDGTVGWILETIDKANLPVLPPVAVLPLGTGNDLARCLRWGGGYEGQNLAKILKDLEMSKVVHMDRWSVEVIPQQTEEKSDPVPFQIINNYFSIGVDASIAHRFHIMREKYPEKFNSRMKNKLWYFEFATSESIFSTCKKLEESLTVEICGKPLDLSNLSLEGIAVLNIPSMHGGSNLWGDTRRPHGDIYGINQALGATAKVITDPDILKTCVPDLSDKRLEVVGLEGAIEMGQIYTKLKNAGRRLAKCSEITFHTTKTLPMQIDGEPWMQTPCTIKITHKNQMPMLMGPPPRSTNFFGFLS

IC50 (DGKα) [µM] | IC50 (DGKζ) [µM] | SMILES
0.01 to 0.1 | 0.01 to 0.1 | Cn1c(=O)c(C#N)c(N(C)[C@H]2CC[C@H](N(CC3CCC3)c3ccc(F)cc3CO)CC2)c2nc(C#N)ccc21 [Example 155, trans-8-((4-((cyclobutylmethyl)(4-fluoro-2-(hydroxymethyl)phenyl)amino)cyclohexyl)(methyl)amino)-5-methyl-6-oxo-5,6-dihydro-1,5-naphthyridine-2,7-dicarbonitrile]
0.01 to 0.1 | 0.1 to 1 | Cc1cc(N(CC2CCOC2)[C@H]2CC[C@@H](N(C)c3cc(=O)n(C)c4ccc(C#N)nc34)CC2)ccc1F (stereo partly drawn) [Example 157, cis-8-((-4-((4-fluoro-3-methylphenyl) ((tetrahydrofuran-3-yl)methyl)amino)cyclohexyl) (methyl)amino)-5-methyl-6-oxo-5,6-dihydro-1,5-naphthyridine-2-carbonitrile]
0.01 to 0.1 | 0.01 to 0.1 | Cn1c(=O)c(C#N)c(N(C)[C@H]2CC[C@@H](N(CC3CCOC3)c3ccc(F)c(OC(F)F)c3)CC2)c2nc(C#N)ccc21 (stereo partly drawn) [Example 158, cis-8-((-4-((3-(difluoromethoxy)-4-fluorophenyl) ((tetrahydrofuran-3-yl)methyl)amino)cyclohexyl) (methyl)amino)-5-methyl-6-oxo-5,6-dihydro-1,5-naphthyridine-2,7-dicarbonitrile]
< 0.01 | 0.01 to 0.1 | Cn1c(=O)cc(N(C)[C@H]2CC[C@@H](N(CC3CCC3)c3cc4c(cc3F)OCO4)CC2)c2nc(C#N)ccc21 [Example 161, cis-8-((-4-((cyclobutylmethyl)(6-fluorobenzo[d][1,3]dioxol-5-yl)amino)cyclohexyl)(methyl)amino)-5-methyl-6-oxo-5,6-dihydro-1,5-naphthyridine-2-carbonitrile]
< 0.01 | 0.1 to 1 | Cn1c(=O)cc(N(C)[C@H]2CC[C@@H](N(CC3COCCO3)c3ccc(F)cc3)CC2)c2nc(C#N)ccc21 (stereo partly drawn) [Example 163, cis-8-((-4-(((1,4-dioxan-2-yl)methyl)(4-fluorophenyl)amino)cyclohexyl)(methyl)amino)-5-methyl-6-oxo-5,6-dihydro-1,5-naphthyridine-2-carbonitrile]
0.1 to 1 | 0.1 to 1 | Cc1cc(F)ccc1N(CC1CCOC1)[C@H]1CC[C@@H](N(C)c2cc(=O)n(C)c3ccc(C#N)nc23)CC1 (stereo partly drawn) [Example 164, cis-8-((-4-((4-fluoro-2-methylphenyl) ((tetrahydrofuran-3-yl)methyl)amino)cyclohexyl) (methyl)amino)-5-methyl-6-oxo-5,6-dihydro-1,5-naphthyridine-2-carbonitrile]
0.1 to 1 | 0.1 to 1 | Cc1cc(F)ccc1N(C[C@H]1CCOC1)[C@H]1CC[C@H](N(C)c2c(C#N)c(=O)n(C)c3ccc(C#N)nc23)CC1 [Example 165, trans-8-((-4-((4-fluoro-2-methylphenyl)(((R)-tetrahydrofuran-3-yl)methyl)amino)cyclohexyl) (methyl)amino)-5-methyl-6-oxo-5,6-dihydro-1,5-naphthyridine-2,7-dicarbonitrile]
0.1 to 1 | 0.01 to 0.1 | Cc1cc(F)ccc1N(C[C@H]1CCCO1)[C@H]1CC[C@H](N(C)c2c(C#N)c(=O)n(C)c3ccc(C#N)nc23)CC1 [Example 167, trans-8-((-4-((4-fluoro-2-methylphenyl)(((R)-tetrahydrofuran-2-yl)methyl)amino)cyclohexyl) (methyl)amino)-5-methyl-6-oxo-5,6-dihydro-1,5-naphthyridine-2,7-dicarbonitrile]
0.01 to 0.1 | 0.01 to 0.1 | Cn1c(=O)cc(N(C)[C@H]2CC[C@@H](N(CC3CCC3)c3ccc4c(c3)OCCO4)CC2)c2nc(C#N)ccc21 [Example 169, cis-8-((4-((cyclobutylmethyl)(2,3-dihydrobenzo[b] [1,4]dioxin-6-yl)amino)cyclohexyl)(methyl)amino)-5-methyl-6-oxo-5,6-dihydro-1,5-naphthyridine-2-carbonitrile]

Further lines, the compound ahead of its results:

SMILES | IC50 (DGKα) [µM] | IC50 (DGKζ) [µM]
Cn1c(=O)c(C#N)c(N(C)[C@H]2CC[C@H](N(CC3CCC3)c3ccc(F)cc3CO)CC2)c2nc(Cl)ccc21 [Example 154, trans-6-chloro-4-((4-((cyclobutylmethyl)(4-fluoro-2-(hydroxymethyl)phenyl)amino)cyclohexyl)(methyl)amino)-1-methyl-2-oxo-1,2-dihydro-1,5-naphthyridine-3-carbonitrile] | ≥ 1 | ≥ 1
Cn1c(=O)cc(N(C)[C@H]2CC[C@@H](N(CC3CCOC3)c3ccc(F)c(OC(F)F)c3)CC2)c2nc(C#N)ccc21 (stereo partly drawn) [Example 156, cis-8-((-4-((3-(difluoromethoxy)-4-fluorophenyl) ((tetrahydrofuran-3-yl)methyl)amino)cyclohexyl) (methyl)amino)-5-methyl-6-oxo-5,6-dihydro-1,5-naphthyridine-2-carbonitrile] | 0.1 to 1 | 0.1 to 1
Cc1cc(N(CC2CCOC2)[C@H]2CC[C@@H](N(C)c3c(C#N)c(=O)n(C)c4ccc(C#N)nc34)CC2)ccc1F (stereo partly drawn) [Example 159, cis-8-((-4-((4-fluoro-3-methylphenyl) ((tetrahydrofuran-3-yl)methyl)amino)cyclohexyl) (methyl)amino)-5-methyl-6-oxo-5,6-dihydro-1,5-naphthyridine-2,7-dicarbonitrile] | 0.01 to 0.1 | 0.01 to 0.1
Cn1c(=O)c(C#N)c(N(C)[C@H]2CC[C@@H](N(CC3CCC3)c3cc4c(cc3F)OCO4)CC2)c2nc(C#N)ccc21 [Example 160, cis-8-((-4-((cyclobutylmethyl)(6-fluorobenzo[d][1,3]dioxol-5-yl)amino)cyclohexyl)(methyl)amino)-5-methyl-6-oxo-5,6-dihydro-1,5-naphthyridine-2,7-dicarbonitrile] | < 0.01 | 0.01 to 0.1
Cc1ccc(N(CC2CCOC2)[C@H]2CC[C@@H](N(C)c3cc(=O)n(C)c4ccc(C#N)nc34)CC2)cc1OC(F)F (stereo partly drawn) [Example 162, cis-8-((-4-((3-(difluoromethoxy)-4-methylphenyl) ((tetrahydrofuran-3-yl)methyl)amino)cyclohexyl) (methyl)amino)-5-methyl-6-oxo-5,6-dihydro-1,5-naphthyridine-2-carbonitrile] | 0.1 to 1 | 0.1 to 1
Cc1cc(F)ccc1N(C[C@@H]1CCOC1)[C@H]1CC[C@H](N(C)c2c(C#N)c(=O)n(C)c3ccc(C#N)nc23)CC1 [Example 166, trans-8-((-4-((4-fluoro-2-methylphenyl)(((S)-tetrahydrofuran-3-yl)methyl)amino)cyclohexyl) (methyl)amino)-5-methyl-6-oxo-5,6-dihydro-1,5-naphthyridine-2,7-dicarbonitrile] | ≥ 1 | 0.1 to 1
Cc1cc(F)ccc1N(C[C@@H]1CCCO1)[C@H]1CC[C@H](N(C)c2c(C#N)c(=O)n(C)c3ccc(C#N)nc23)CC1 [Example 168, trans-8-((-4-((4-fluoro-2-methylphenyl)(((S)-tetrahydrofuran-2-yl)methyl)amino)cyclohexyl) (methyl)amino)-5-methyl-6-oxo-5,6-dihydro-1,5-naphthyridine-2,7-dicarbonitrile] | ≥ 1 | 0.1 to 1
Cn1c(=O)c(C#N)c(N(C)[C@H]2CC[C@@H](N(CC3CCC3)c3ccc4c(c3)OCCO4)CC2)c2nc(C#N)ccc21 [Example 170, cis-8-((4-((cyclobutylmethyl)(2,3-dihydrobenzo[b] [1,4]dioxin-6-yl)amino)cyclohexyl)(methyl)amino)-5-methyl-6-oxo-5,6-dihydro-1,5-naphthyridine-2,7-dicarbonitrile] | 0.01 to 0.1 | 0.01 to 0.1
